From US8329711B2, “Pyridone-substituted-dihydropyrazolopyrimidinone derivative” (MSD K.K., priority 2007, dated 2012)

Legend:
Wee1 kinase = molecular target: T1, Wee1 kinase (Homo sapiens, UniProt P30291); assay: Wee1 kinase-inhibitory effect (33P-ATP filter assay with GST-tagged Wee1); type: biochemical; details: purified GST-Wee1, Poly(Lys,Tyr) substrate, 10 μM ATP, 30° C. for 30 minutes; read-out: Weel-Inhibitory Effect (IC50)
T1 construct: made in house; host or cells: Sf9 insect cells (recombinant baculovirus)
Text: Pharmacological Test 1 (Wee1 Kinase-Inhibitory Effect)
(1) Purification of Wee1 Kinase:
A cDNA of Wee1 kinase with glutathion-S-transferase (GST) fused at the amino terminal thereof was inserted into a baculovirus expression vector to construct a recombinant baculovirus, with which cells of an insect cell line Sf9 were infected for high expression therein. The infected cells were collected and solubilized, and then the GST-tagged Wee1 kinase protein was adsorbed by a glutathion column, and eluted from the column with glutathion, and the active fraction was desalted in a desalting column to give a purified enzyme.
(2) Determination of Wee1 Kinase Activity:
In determination of the Wee1 kinase activity, a synthetic peptide, Poly(Lys,Tyr) Hydrobromide (Lys:Tyr (4:1)) bought from Sigma was used as the substrate.
The amount of the reaction liquid was 21.1 μL; and the composition of the reaction buffer was 50 mM Tris-HCl buffer (pH 7.4)/10 mM magnesium chloride/1 mM dithiothreitol. The purified Wee1 kinase, 2.5 μg of the substrate peptide, 10 μM of non-labeled adenosine triphosphate (ATP) and 1 μCi of [γ-^33P]-labeled ATP (2500 Ci/mmol or more) were added to it, and reacted at 30° C. for 30 minutes. Next, 10 μL of 350 mM phosphate buffer was added to the reaction system to stop the reaction. The substrate peptide was adsorbed by a P81 paper filter 96-well plate, then washed a few times with 130 mM phosphate buffer, and its radioactivity was counted with a liquid scintillation counter. The [γ-^33P]-labeled ATP was bought from Amersham Bioscience.
To add a test compound to the reaction system, the compound was diluted with dimethyl sulfoxide (DMSO) to prepare a series of dilutions. 1.1 μL of each dilution was added to the reaction system. As a control, 1.1 μL of DMSO was added to the reaction system.

[1] = system: Cdc2 (Cdk1) tyrosine 15 phosphorylation in NCI-H1299 cells; assay: Cdc2 (Cdk1) tyrosine 15-phosphorylation-inhibitory effect in NCI-H1299 cells, camptothecin-treated (ELISA); type: cell-based; details: Homo sapiens, 200 nM camptothecin 16 hours, then test compound with nocodazole 8 hours, read-out: Cdc2-Y15 Phosphorylation-Inhibitory Effect (H1299, +camptothecin) (EC50)
Text: Pharmacological Test 2 (Method of Determining Drug Potency with Cells (Cdc2 (Cdk1) Tyrosine 15-Phosphorylation-Inhibitory Effect))
Fetal bovine serum (FBS) was gotten from Morgate; media RPMI1640 and DMEM were from Invitrogen; camptothecin was from Sigma; gemcitabine was from Nippon Eli Lilly; nocodazole and protease inhibitor cocktail were from Sigma; rabbit anti-Cdc2 antibody and mouse anti-Cdc2 antibody were from Santa Cruz Biotechnology; rabbit anti-tyrosine 15-phosphorylated Cdc2 antibody and horseradish peroxidase-labeled anti-mouse IgG antibody were from Cell Signaling Technology; sure blue reserve TMB peroxidase substrate was from Kirkegaard and Perry Laboratories.
Human non-small cell lung cancer cells (NCI-H1299) and human colon cancer cells (WiDr) were gotten from American Type Culture Collection (ATCC).
In the method of using NCI-H1299 cells, the cells were suspended in a medium of 10% FBS-added RPMI1640, and the cell suspension was applied to a 96-well Nunclondelta-processed plastic plate (bought from Nunc), in an amount of 2000 cells/100 μL/well, in which the cells were incubated overnight in 5% CO2-95% air at 37° C. Camptothecin was dissolved in dimethyl sulfoxide (DMSO), and diluted with a medium of 10% FBS-added RPMI1640, and then this was applied to the plate on which the cells had been previously sowed, in an amount of 50 μL/well in such a manner that the final concentration of camptothecin could be 200 nM. Then, the cells were incubated for 16 hours at 37° C. in 5% CO2-95% air. A test compound was stepwise diluted with DMSO, then diluted with 4000 nM nocodazole-containing, 10% FBS-added RPMI1640, and applied to the plate on which the camptothecin-treated cells had been sowed, in an amount of 50 μL/well. […] Cdc2 was determined through ELISA as follows: A rabbit anti-Cdc2 antibody solution, which had been diluted 200-fold with 50 mM carbonate-bicarbonate buffer (pH 9.6), was applied to a 96-well maxisorpimmuno plate (bought from Nunc), in an amount of 50 μL/well, and statically kept overnight at 4° C. so as to fix the antibody on the plate. […]

T1 sequence (P30291 whole entry): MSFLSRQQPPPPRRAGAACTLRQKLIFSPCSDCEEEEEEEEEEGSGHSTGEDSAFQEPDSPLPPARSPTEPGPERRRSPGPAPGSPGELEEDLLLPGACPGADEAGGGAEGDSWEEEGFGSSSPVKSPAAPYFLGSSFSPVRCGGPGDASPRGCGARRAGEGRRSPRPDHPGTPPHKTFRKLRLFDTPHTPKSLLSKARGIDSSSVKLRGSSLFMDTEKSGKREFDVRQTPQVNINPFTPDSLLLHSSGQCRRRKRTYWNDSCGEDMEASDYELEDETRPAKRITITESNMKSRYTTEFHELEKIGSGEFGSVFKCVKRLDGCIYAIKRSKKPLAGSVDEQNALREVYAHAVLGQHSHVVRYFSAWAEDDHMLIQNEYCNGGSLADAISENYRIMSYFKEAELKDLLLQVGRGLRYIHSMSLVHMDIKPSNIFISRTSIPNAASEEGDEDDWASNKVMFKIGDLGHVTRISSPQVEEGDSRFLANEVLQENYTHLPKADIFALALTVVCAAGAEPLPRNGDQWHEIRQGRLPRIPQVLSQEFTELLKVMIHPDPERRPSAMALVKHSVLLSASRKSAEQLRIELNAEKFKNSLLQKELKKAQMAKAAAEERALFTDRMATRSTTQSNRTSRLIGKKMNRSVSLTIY

IC50 (Wee1 kinase) [nM] | EC50 [1] [nM] | SMILES
16 | 190 | C=CCn1c(=O)c2cnc(Nc3ccc(N4CCN(C)CC4)cc3)nc2n1-c1cccc(-n2ccccc2=O)n1 [Example 1, 6′-(2-allyl-6-{[4-(4-methylpiperazin-1-yl)phenyl]amino}-3-oxo-2,3-dihydro-1H-pyrazolo[3,4-d]pyrimidin-1-yl)-2H-1,2′-bipyridin-2-one]
18 | 260 | C=CCn1c(=O)c2cnc(Nc3ccc(N4CCN(C)CC4)cc3)nc2n1-c1cccc(-n2cc(F)ccc2=O)n1 [Example 5, 6′-(2-allyl-6-{[4-(4-methylpiperazin-1-yl)phenyl]amino}-3-oxo-2,3-dihydro-1H-pyrazolo[3,4-d]pyrimidin-1-yl)-5-fluoro-2H-1,2′-bipyridin-2-one]
17.9 | 180 | C=CCn1c(=O)c2cnc(Nc3ccc4c(c3)CN(C)CC4)nc2n1-c1cccc(-n2ccccc2=O)n1 [Example 30, 6′-{2-Allyl-6-[(2-methyl-1,2,3,4-tetrahydroisoquinolin-7-yl)amino]-3-oxo-2,3-dihydro-1H-pyrazolo[3,4-d]pyrimidin-1-yl}-2H-1,2′-bipyridin-2-one]
